Source: patent US11208412B2 (DAEGU-GYEONGBUK MEDICAL INNOVATION FOUNDATION, priority 2017, dated 2021)

What was measured:
Test in all cases: Kinase selectivity, DiscoverX scanMAX Kinase assay panel (% control)
Type in all cases: binding
[1] = molecular target: T1, kinases of the scanMAX Kinase assay panel (Homo sapiens, UniProt P00533, G719S); conditions: EGFR(G719S); 1 uM
T1 construct: purchased DiscoverX Co. (contract measurement) scanMAX Kinase assay panel
Summary of the method: (§1)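 Each enzyme is treated with drug at 1 uM in DMSO, then signal is scaled between a positive control (0%) and DMSO (100%) to give % control. Kinases with % control under 35% are scored as inhibited.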

[2] = molecular target: T2, kinases of the scanMAX Kinase assay panel (Homo sapiens, UniProt P36888, D835H); conditions: FLT3(D835H); 1 uM
T2 construct: purchased DiscoverX Co. (contract measurement) scanMAX Kinase assay panel
T2 sequence (P36888 27-993 D835H): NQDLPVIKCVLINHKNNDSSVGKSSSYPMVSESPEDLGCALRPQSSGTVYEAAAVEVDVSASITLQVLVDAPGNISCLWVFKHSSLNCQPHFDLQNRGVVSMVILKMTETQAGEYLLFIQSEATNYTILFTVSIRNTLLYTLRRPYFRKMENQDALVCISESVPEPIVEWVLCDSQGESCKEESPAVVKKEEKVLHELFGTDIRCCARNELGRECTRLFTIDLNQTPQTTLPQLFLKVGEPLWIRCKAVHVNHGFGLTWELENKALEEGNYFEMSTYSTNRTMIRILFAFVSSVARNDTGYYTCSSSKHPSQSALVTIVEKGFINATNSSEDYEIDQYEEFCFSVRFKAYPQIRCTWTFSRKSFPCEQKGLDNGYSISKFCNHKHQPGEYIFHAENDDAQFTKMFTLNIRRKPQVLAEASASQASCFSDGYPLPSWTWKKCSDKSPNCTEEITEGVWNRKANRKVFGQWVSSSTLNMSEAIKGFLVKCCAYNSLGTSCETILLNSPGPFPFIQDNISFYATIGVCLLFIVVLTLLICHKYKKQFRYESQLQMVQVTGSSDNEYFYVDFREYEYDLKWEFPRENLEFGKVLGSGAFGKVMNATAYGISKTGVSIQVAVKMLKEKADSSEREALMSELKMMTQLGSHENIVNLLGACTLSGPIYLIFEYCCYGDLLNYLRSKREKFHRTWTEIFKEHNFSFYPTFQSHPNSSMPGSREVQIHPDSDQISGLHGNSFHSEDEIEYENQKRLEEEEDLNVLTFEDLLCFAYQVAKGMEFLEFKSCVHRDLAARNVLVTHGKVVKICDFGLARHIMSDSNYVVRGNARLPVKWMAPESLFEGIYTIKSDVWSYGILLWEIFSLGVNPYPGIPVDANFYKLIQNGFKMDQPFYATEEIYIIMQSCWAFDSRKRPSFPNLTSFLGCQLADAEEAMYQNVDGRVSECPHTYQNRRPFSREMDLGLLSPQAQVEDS
Summary of the method: as §1

[3] = molecular target: T3, kinases of the scanMAX Kinase assay panel (Homo sapiens, UniProt Q9UL54); conditions: kinase TAOK2; 1 uM in DMSO
T3 construct: purchased DiscoverX Co. (contract measurement) scanMAX Kinase assay panel
T3 sequence (Q9UL54 1-1235): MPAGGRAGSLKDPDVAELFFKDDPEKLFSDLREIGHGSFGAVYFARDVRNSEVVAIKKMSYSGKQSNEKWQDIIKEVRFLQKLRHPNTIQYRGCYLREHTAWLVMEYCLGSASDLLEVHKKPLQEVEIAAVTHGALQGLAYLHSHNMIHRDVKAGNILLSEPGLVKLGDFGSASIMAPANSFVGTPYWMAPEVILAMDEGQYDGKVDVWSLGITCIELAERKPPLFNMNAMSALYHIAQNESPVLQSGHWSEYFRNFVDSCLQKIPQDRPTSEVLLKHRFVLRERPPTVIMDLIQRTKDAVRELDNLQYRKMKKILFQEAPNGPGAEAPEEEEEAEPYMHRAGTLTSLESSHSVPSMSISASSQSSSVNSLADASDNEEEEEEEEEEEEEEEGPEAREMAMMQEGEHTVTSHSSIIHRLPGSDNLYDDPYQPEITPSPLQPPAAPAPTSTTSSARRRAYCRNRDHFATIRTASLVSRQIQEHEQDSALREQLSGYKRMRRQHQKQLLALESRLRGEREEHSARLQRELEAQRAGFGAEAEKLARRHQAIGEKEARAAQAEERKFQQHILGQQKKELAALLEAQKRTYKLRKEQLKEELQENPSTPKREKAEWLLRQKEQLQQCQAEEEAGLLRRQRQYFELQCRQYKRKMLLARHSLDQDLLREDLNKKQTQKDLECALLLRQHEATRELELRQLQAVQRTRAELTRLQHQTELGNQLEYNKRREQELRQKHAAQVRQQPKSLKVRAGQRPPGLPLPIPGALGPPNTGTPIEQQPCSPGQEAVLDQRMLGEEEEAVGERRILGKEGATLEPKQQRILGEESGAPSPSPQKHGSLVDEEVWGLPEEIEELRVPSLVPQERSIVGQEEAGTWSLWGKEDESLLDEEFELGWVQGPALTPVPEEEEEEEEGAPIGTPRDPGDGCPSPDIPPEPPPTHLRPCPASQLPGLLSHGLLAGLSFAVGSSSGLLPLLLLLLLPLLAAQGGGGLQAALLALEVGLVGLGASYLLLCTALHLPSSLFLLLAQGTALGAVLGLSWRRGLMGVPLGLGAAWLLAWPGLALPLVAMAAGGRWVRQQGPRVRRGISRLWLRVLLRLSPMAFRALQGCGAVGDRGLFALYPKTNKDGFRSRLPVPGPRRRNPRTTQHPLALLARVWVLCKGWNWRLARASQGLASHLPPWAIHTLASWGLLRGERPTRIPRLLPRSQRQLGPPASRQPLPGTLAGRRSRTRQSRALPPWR
Summary of the method: as §1

[4] = molecular target: T4, kinases of the scanMAX Kinase assay panel (Homo sapiens, UniProt Q9UQB9); conditions: AURKC; 1 uM
T4 construct: purchased DiscoverX Co. (contract measurement) scanMAX Kinase assay panel
T4 sequence (Q9UQB9 1-309): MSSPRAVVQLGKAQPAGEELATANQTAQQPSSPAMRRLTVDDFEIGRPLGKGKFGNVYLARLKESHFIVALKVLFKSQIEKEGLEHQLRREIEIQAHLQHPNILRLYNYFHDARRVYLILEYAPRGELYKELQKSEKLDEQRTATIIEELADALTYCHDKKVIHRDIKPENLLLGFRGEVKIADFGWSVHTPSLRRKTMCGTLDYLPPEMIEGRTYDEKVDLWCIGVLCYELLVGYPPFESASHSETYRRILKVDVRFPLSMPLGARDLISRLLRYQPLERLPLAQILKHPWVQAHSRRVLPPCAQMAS
Summary of the method: as §1

T1 sequence (P00533 25-1210 G719S): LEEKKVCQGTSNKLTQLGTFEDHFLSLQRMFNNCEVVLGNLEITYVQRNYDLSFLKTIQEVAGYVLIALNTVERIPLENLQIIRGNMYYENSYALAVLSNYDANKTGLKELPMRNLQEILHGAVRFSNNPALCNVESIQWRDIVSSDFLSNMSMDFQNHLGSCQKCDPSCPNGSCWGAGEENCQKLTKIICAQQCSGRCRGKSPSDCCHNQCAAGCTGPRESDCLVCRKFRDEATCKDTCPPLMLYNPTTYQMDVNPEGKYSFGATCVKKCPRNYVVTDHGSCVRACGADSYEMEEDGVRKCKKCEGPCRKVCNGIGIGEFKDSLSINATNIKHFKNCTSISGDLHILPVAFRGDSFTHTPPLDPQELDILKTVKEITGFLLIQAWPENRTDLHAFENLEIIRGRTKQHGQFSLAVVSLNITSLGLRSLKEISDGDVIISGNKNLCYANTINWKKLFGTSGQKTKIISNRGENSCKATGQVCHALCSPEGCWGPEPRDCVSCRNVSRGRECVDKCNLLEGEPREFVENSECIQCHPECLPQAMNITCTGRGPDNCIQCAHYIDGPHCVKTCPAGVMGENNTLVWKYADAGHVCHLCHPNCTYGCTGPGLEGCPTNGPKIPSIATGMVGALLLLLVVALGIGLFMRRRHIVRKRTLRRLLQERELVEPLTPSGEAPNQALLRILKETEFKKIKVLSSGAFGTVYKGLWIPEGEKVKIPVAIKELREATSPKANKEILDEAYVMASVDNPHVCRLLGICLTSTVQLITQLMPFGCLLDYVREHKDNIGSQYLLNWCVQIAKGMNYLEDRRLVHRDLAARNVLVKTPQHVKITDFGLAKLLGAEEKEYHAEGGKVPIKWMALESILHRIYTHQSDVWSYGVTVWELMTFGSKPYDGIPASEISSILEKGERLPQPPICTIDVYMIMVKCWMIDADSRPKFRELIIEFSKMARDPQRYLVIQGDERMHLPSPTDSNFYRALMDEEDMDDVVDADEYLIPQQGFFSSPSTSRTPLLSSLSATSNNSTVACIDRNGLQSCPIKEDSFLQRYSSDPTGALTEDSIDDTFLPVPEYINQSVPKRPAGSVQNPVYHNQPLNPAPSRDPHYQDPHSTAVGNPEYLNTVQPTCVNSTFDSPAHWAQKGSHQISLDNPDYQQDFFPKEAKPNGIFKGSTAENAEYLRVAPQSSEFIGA

SMILES | remaining binding at 1 µM [1] | remaining binding at 1 µM [2] | remaining binding at 1 µM [3] | remaining binding at 1 µM [4]
CNc1nc(Nc2ccc(C(=O)N3CCOCC3)cc2OC)nc2[nH]cc(C#N)c12 [Example 1, 2-((2-methoxy-4-(morpholine-4-carbonyl)phenyl)amino)-4-(methylamino)-7H-pyrrolo[2,3-d]pyrimidine-5-carbonitrile] | 82% | 92% | 78% | 100%
CC1(Nc2nc(Nc3cnn([C@H]4CCN(C5COC5)C[C@@H]4F)c3Cl)nc3[nH]cc(C#N)c23)CC1 [Example 52, 2-((5-chloro-1-((3S,4S)-3-fluoro-1-(oxetane-3-yl)piperidine-4-yl)-1H-pyrazole-4-yl)amino)((1-methylcyclopropyl)amino)-7H-pyrrolo[2,3-d]pyrimidine-5-carbonitrile] | 57% | 0.1% | 40% | 7.1%
CCNc1nc(Nc2ccc(C(=O)N3CCC(N4CCOCC4)CC3)cc2OC)nc2[nH]cc(C(F)(F)F)c12 [Example 104, (4-((4-(ethylamino)-5-(trifluoromethyl)-7H-pyrrolo[2,3-d]pyrimidine-2-yl)amino)-3-methoxyphenyl)(4-morpholinopiperidine-1-yl)methanone] | 100% | 21% | 87% | 100%
